These results are taken from publication PMC6938345, “Inhibition of complement activation, myeloperoxidase, NET formation and oxidant activity by PIC1 peptide variants” (PLoS ONE, 2019).

Entries after “also recorded” stand apart in the source; their conditions may differ.

The target of one experiment is T1, C1q (Homo sapiens, UniProt P02745+P02746+P02747).
T1 construct: purchased Complement Technology (Tyler, TX)
As to the kind of experiment: C1q binding ELISA-type assay. The following applies: C1q as capture substrate. On the procedure: (§1) An Immunlon-2 HB ELISA plate was coated with 1 μg/ml C1q or MPO in bicarbonate buffer overnight at 4 °C. The plates were washed with PBST (phosphate buffered saline + 0.1% Tween) and then blocked with 1% gelatin/PBS for 2 hours at room temperature. After washing, the plates were incubated with PA or sarcosine variant peptides starting at 2.5 mg/ml and then serially diluted in 1% gelatin/PBS for 1 hour at room temperature. After washing, the plates were probed with rabbit anti-PA (developed with Cocalico Biologicals, Reamstown, PA) at 1:1000 in 1% gelatin/PBS for 1 hour, room temperature, followed by a goat anti-rabbit HRP (Sigma Aldrich, St Louis, MO) at 1:1,000 in 1% gelatin/PBS for 1 hour at room temperature with a washing step in between. Wells were developed using TMB substrate solution, stopped using 1 N H2SO4, and read at 450 nm in a plate reader.
We then tested peptide variant binding to C1q in an ELISA-type assay in which the C1q is used as the capture substrate. Binding curves for each peptide is shown in Fig 1C, from which half-maximal binding concentrations were calculated (Fig 1D). […] Higher concentrations of DMSO interfere with the detecting reagents resulting in a partial binding curve.

For experiment [1], the system named is classical complement pathway (factor B-depleted human sera + antibody-sensitized sheep erythrocytes). As to the kind of experiment: Classical pathway CH50-type hemolytic assay in factor B-depleted sera. In kind it is cell-based. The following applies: peptides 0.4 mM, P < 0.001. On the procedure: For hemolytic complement assays, human red blood cells (RBCs) from type AB donors were purified, washed and standardized to 1 × 10^9 cells/ml, as previously described. Human sera from type O donors at a 20% final concentration was combined with 1 mM PIC1 or sarcosine variant peptides and the volume was brought up to 0.15 ml with GVBS^++ and 0.5 ml RBCs. For factor B-depleted sera hemolytic assays, a final of 0.005% factor B depleted sera was incubated with 1 mM PIC1 or sarcosine variant peptides with 0.1 ml antibody-sensitized sheep red blood cells (EA) in a final volume of 0.75 ml GVBS^++. The samples were incubated for 1 hour at 37 °C and then 1.0 ml of GVBS^-—was added to the factor B-depleted samples to stop the reaction. The samples were spun at 3,000 rpm for 5 minutes and the supernatant was collected and read at 412 nm. Values are represented as a percent of the positive control, which consists of human O sera and AB red blood cells in GVBS^++ buffer. […]
Fig 1 Sarcosine variant inhibition of complement activation in hemolytic assays and C1q binding. […] D) Half-maximal binding concentrations were calculated for each peptide’s binding curve.

In experiment [2] the test system is antibody-initiated complement activation (type O sera + type AB red blood cells). Nature of the experiment: ABO incompatibility hemolytic assay (CH50-type, ex vivo). In kind it is cell-based, human. The following applies: peptides 1.8 mM. On the procedure:
For hemolytic complement assays, human red blood cells (RBCs) from type AB donors were purified, washed and standardized to 1 × 10^9 cells/ml, as previously described. Human sera from type O donors at a 20% final concentration was combined with 1 mM PIC1 or sarcosine variant peptides and the volume was brought up to 0.15 ml with GVBS^++ and 0.5 ml RBCs. For factor B-depleted sera hemolytic assays, a final of 0.005% factor B depleted sera was incubated with 1 mM PIC1 or sarcosine variant peptides with 0.1 ml antibody-sensitized sheep red blood cells (EA) in a final volume of 0.75 ml GVBS^++. The samples were incubated for 1 hour at 37 °C and then 1.0 ml of GVBS^-—was added to the factor B-depleted samples to stop the reaction. The samples were spun at 3,000 rpm for 5 minutes and the supernatant was collected and read at 412 nm. Values are represented as a percent of the positive control, which consists of human O sera and AB red blood cells in GVBS^++ buffer.
In order to evaluate the extent to which the peptide variants inhibit antibody-initiated complement activation, we tested them in two hemolytic assays including an ABO incompatibility ex vivo assay (Fig 1A) and a classical pathway CH50-type assay in factor B-depleted sera (Fig 1B). In the ABO incompatibility hemolytic assay, purified erythrocytes from a ‘type AB+’ donor are incubated with sera from a ‘type O’ subject containing anti-A and anti-B antibodies; peptides were tested at 1.8 mM. […] We then performed a CH50-type hemolytic assay, with antibody-sensitized sheep erythrocytes, isolating the classical pathway by utilizing factor B-depleted sera; peptides were tested at 0.4 mM.
Fig 1 Sarcosine variant inhibition of complement activation in hemolytic assays and C1q binding. A) Inhibition of ABO incompatibility hemolysis in a CH50-type assay. Peptides are at a final concentration of 1.8 mM. […] Data are the means of n = 4 independent experiments + SEM. B) Inhibition of classical complement pathway-mediated hemolysis in factor B-depleted sera in a CH50-type assay. Peptides are at a final concentration of 0.4 mM. Data are the means of n = 4 independent experiments + SEM. C) Binding of increasing concentrations of sarcosine variants to purified C1q in an ELISA-type assay. Data are the means of n = 3 independent experiments ± SEM. D) Half-maximal binding concentrations were calculated for each peptide’s binding curve.

A further experiment deals with T2, MPO (Homo sapiens, UniProt P05164).
T2 construct: purchased Lee BioSolutions (Maryland Heights, MO)
T2 sequence (P05164 49-745): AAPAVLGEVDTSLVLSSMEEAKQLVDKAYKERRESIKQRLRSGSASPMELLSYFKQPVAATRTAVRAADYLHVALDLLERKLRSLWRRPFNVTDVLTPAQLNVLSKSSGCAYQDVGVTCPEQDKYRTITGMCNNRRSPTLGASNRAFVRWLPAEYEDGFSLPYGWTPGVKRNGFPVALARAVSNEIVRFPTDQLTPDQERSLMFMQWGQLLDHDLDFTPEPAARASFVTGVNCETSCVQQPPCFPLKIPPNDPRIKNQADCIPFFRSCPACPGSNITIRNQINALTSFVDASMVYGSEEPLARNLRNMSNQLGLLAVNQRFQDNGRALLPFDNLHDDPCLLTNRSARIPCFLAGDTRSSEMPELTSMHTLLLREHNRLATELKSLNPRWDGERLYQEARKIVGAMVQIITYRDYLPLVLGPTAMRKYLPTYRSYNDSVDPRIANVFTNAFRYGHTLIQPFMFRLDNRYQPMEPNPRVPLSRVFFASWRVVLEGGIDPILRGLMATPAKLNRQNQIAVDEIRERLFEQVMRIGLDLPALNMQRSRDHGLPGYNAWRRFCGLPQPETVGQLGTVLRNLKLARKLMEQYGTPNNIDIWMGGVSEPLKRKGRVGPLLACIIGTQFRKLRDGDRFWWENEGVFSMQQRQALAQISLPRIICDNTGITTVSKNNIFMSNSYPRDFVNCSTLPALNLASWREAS
Nature of the experiment: MPO binding ELISA-type assay. The following applies: solid phased MPO, plate-based. The protocol:
as §1
We then tested the binding of the peptide variants to solid phased MPO in a plate-based assay. The binding curves are shown in Fig 2C with MPO binding identified for all variants except C9,10. Due to the near complete overlay of the I8 and PA curves, the PA curve is not shown in the graph. Half-maximal (Fig 2D) binding concentrations were calculated from these curves.
On the technique in general: In an ELISA, binding on a coated surface is turned into a signal by an enzyme label.

T1 sequence (P02745 23-245): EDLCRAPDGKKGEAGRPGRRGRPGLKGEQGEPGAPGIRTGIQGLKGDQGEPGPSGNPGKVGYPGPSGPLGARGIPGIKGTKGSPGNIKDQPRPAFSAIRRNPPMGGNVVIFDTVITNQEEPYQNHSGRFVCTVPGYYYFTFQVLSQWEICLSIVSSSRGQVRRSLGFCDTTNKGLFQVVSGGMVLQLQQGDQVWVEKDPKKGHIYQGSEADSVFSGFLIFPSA
T1 sequence (P02746 28-253): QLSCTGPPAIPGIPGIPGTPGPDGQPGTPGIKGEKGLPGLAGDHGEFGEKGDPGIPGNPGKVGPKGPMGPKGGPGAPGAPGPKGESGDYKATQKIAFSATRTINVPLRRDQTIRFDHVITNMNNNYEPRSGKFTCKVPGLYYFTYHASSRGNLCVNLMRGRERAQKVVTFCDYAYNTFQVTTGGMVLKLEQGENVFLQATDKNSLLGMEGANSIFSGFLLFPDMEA
T1 sequence (P02747 29-245): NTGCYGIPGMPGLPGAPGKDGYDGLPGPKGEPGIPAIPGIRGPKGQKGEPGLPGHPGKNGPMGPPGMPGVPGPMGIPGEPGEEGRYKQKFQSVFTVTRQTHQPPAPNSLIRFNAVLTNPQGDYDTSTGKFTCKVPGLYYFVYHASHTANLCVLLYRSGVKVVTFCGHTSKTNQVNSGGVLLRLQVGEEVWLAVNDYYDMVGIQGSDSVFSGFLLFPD

For `CC[C@H](C)[C@H](N)C(=O)N[C@@H](C)C(=O)N[C@@H](CC(C)C)C(=O)N[C@H](C(=O)N[C@@H](CC(C)C)C(=O)N[C@@H](CCC(=O)O)C(=O)N1CCC[C@H]1C(=O)N(C)CC(=O)N[C@@H](CS)C(=O)N[C@@H](CS)C(=O)N[C@@H](CCC(N)=O)C(=O)N[C@@H](CCC(=O)O)C(=O)N[C@@H](CCCNC(=N)N)C(=O)N[C@@H](C)C(=O)N[C@@H](C)C(=O)O)[C@@H](C)CC` [I8], the “binding to C1q (in words)” value at C1q was “superior binding to C1q; also recorded: slightly superior to that of PA-dPEG24”. Besides, in experiment [1], the “inhibition of hemolysis more than PA-dPEG24” value was found to be 75%. For the same molecule, the ABO hemolysis in experiment [2] (Avg of n = 4, concentration basis of PIC1 not stated) is listed as 13.50 % of Control. The “inhibition of ABO incompatible hemolysis (in words)” value in experiment [2] is recorded as “to a greater extent than did the PA-dPEG24”. In experiment [2] (equimolar basis, P < 0.002), the “decrease of ABO hemolysis more than PA-dPEG24” value is 53%. In addition, on MPO, the “binding to MPO (in words)” value is “superior binding to MPO”.
